Assay results as given in US20080038809A1, “ISOLATED LECTIN POLYPEPTIDES CONSISTING OF TRUNCATED […] UDP-GalNAc:POLYPEPTIDE N- ACETYLGALACTOSAMINYLTRANSFERASES” (GLYCOZYM APS, priority 2002, published 2008).

Experiments:
[1] = tested on: MUC5AC in HT29MTX cells; test: Immuno-fluorescence staining of MUC5AC with CLH2 (FIG. 18); type: cell-based, human; settings: 5 mM, continuous culture
From the text: FIG. 18 illustrates immuno-fluorescence staining of HT29MTX cells treated with inhibitors as indicated and stained with the anti-MUC5AC monoclonal antibody, CLH2.
In order to evaluate GalNAcβ-benzyl as an inhibitor of mucin glycosylation and secretion we used the cultured colon carcinoma cells of mucin secreting phenotypes: HT-29 metotrexate (MTX) cells selected from the HT-29 cell line by culture in the presence of MTX (kind gift from G. Huet, France). The HT-29 MTX cells were selected to yield a goblet cell like phenotype with constitutive production of MUC5AC. In order to ensure proper goblet cell differentiation the HT29MTX cell line were continuously grown up to 21 days in the presence of 5 mM GalNAcα-benzyl, 5 mM GalNAcβ-benzyl, 5 mM GlcNAcα-benzyl and without inhibitor using culture conditions as described in Hennebicq-Reig et al. (Permanent exposure of mucin-secreting HT-29 cells to benzyl-N-acetyl-alpha-D-galactosaminide induces abnormal O-glycosylation of mucins and inhibits constitutive and stimulated MUC5AC secretion. Biochem J. 1998; 334:283-95). At 7, 14 and 21 days of continuous culture, media was collected and cells were fixed in 3% paraformaldehyde and stained for the presence of MUC5AC and specific carbohydrate structures using immuno-histochemistry with the following monoclonal antibodies: CLH2 recognizing MUC5AC (Reis C. et al. Immunohistochemical study of MUC5AC expression in human gastric carcinomas using a novel monoclonal antibody. Int. J. Cancer. 1997; 74:112-21), 1E3 recognizing Tn (GalNAcα linked to serine or threonine), 3C9 recognizing T (Galβ1-3GalNAcα linked to serine or threonine, and 3F1 recognizing Sialyl-Tn (NeuAcα2-6GalNAcα linked to serine or threonine. […] Furthermore the viscosity of the media from cells with and without inhibitor was evaluated using viscosity micro-measurement.

[2] = tested on: GalNAc-T2 and -T4 secreted soluble enzymes as well as lectin domains; test: Inhibition of GalNAc-transferase lectin binding to GalNAc-glycopeptides, statements on GalNAc-T2 and -T4 together; design: species or system human; settings: enzymes and isolated lectins
Protocol: Direct binding ELISA assay was developed as follows: Polystyrene microtiter plates (Maxisorb, Nunc, Denmark) were coated with peptides or enzymatically glycosylated glycopeptides in PBS overnight at 4° C. Plates were washed and blocked with 0.1% Tween20 and 0.2% BSA in PBS for 1 h at room temperature, followed by incubation with biotinylated proteins in PBS with 0.05% Tween20 for 2 h at room temperature. After four washes with PBS, plates were incubated with 1:2,000 dilution streptavidin-HRP (Sigma) in PBS for 30 min at room temperature and washed four times with PBS. Development was performed with 0.5 mg/ml o-phenylenediamine and 0.02% H2O2 at room temperature for 15 min, and reaction stopped by adding 100 μl/well of 0.5 N H2SO4. Competitive inhibition assays were done at end-point titers of GalNAc-transferase proteins with one hour preincubations with inhibitor.
Lectins and antibodies to carbohydrates usually recognize the anomeric configuration of the sugar structures they bind.
Inhibition experiments were used to further define the binding specificity of GalNAc-T2 and -T4 secreted soluble enzymes as well as lectin domains compared to Helix Pomatia lectin (Table IV).

[3] = tested on: cell surface expression of MUC1 in CHO1d1D/MUC1F-clone2 cells; test: Cell surface expression of MUC1 by immunofluorescence; type: cell-based, Chinese hamster (CHO 1d1D cells); human MUC1; settings: 1 mM, cells grown in GalNAc
Protocol: FIGS. 11A-D are a series of photomicrographs (left to right from top to bottom of) anti-MUC1 antibody immunofluorescence staining of CHO 1d1D cells stably transfected with a full coding cell surface MUC1 (CHO1d1D/MUC1F-clone2). Cell grown in the presence of GalNAc were treated with the O-glycosylation inhibitor GalNAcα-benzyl or control GlcNAcα-benzyl. Cells were grown in plates and stained without permeabilization as described in Example 4.
We therefore investigated the effect of treatment with GalNAcα-benzyl of CHO1d1D/MUC1F-clone2 cells grown in the presence of GalNAc. CHO1d1D/MUC1F-clone2 cells were seeded in 6 well plates at a density of 0.2×10^6 per well and were grown for 6 hours in Hams F12 medium with serum until approximately 30% subconfluent. […] After 18 hours, the medium was replaced with fresh Optimem containing the sugars and benzyl derivatives as above and grown for 12-48 hours. Initially we analyzed surface expression of MUC1 by immunocytology. Cells were washed once in PBS-CMF (phosphate buffered saline Calcium and Magnesium free) after carefully removing the medium from the wells and subsequently fixed in 2 ml 3% paraformaldehyde at 25° C. for 20 min followed by three washes with PBS-CMF 3 times. […]

[4] = tested on: secreted MUC1, wild type CHO/MUC1sol-cloneC4; test: MUC1 secretion by western blot of medium; type: cell-based, Chinese hamster (CHO cells); human MUC1; settings: 1-2 mM
From the text: Because GalNAcα-benzyl exerts separate effects on O-glycan processing and mucin expression, the use of the novel selective inhibitor of mucin expression, GalNAcβ-benzyl, allow analysis of mucin expression and secretion in different cell line models. Examples of human cell lines (available from ATCC, USA) expressing and secreting mucins are without limitations LS174T, HT29, Colo205, CALU, MCF7, T47D, NCI-H292, and A549. Most human adenocarcinoma cell lines express and secret mucins and analysis with antibodies to detect protein expression or probes to detect mRNA can reveal the types and quantities of mucins. […] This and other cell lines can be used to treat with 2 mM GalNAcβ-benzyl. In this Example we used wild type CHO/MUC1sol-cloneC4 and western blot analysis of medium of cells treated with 1-2 mM GalNAcα-benzyl, GalNAcβ-benzyl, or the control GlcNAcα-benzyl. […] The inhibitory effect on mucin secretion can be quantified by a number of assays known to the skilled in the art including western blot, ELISA, gelfiltration, immunocapture, and other assays.

Row | Structure (SMILES) | intracellular staining of MUC5AC [1] | storage phenotype [1] | inhibition of GalNAc-T2 and -T4 lectin mediated binding, in words [2] | inhibition of cell surface expression of MUC1 [3] | inhibition of secreted MUC1 [4]
1 | CC(=O)N[C@H]1[C@@H](OCc2ccccc2)O[C@H](CO)[C@H](O)[C@@H]1O [BzlαGalNAc, benzyl-N-acetyl-alpha-D-galactosaminide] | increased intracellular staining | induced a storage phenotype | equal inhibition |  | 
2 | CC(=O)N[C@H]1[C@@H](OCc2ccccc2)O[C@H](CO)[C@H](O)[C@@H]1O [GalNAcα-benzyl, benzyl-N-acetyl-alpha-D-galactosaminide] |  |  |  | strong inhibition of cell surface expression of MUC1 | inhibition of secreted MUC1
3 | CC(=O)N[C@H]1[C@H](OCc2ccccc2)O[C@H](CO)[C@H](O)[C@@H]1O [GalNAcβ-benzyl] | clearly diminished intracellular staining | did not lead to any storage disease | equal inhibition |  | inhibition of secreted MUC1
4 | CC(=O)N[C@H]1[C@@H](OCc2ccccc2)O[C@H](CO)[C@@H](O)[C@@H]1O [GlcNAcα-benzyl] |  |  |  | no inhibition | 
